Key:
Assay in all cases: NCI SRB growth inhibition (single dose 10 µM / five-dose)
Assay type in all cases: cell-based, human
NCI-H226 = conditions: Homo sapiens; for inhibition at 10 µM: NCI-H226 (Non-small cell lung cancer), read-out: GI%
Procedure, shortened: (§1)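 Growth inhibition is derived from seven absorbance readings per agent (Tz, C and five Ti). Where a parameter level is not reached or is exceeded, the value is given as greater or less than the highest or lowest concentration tested.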

COLO 205 = conditions: Homo sapiens
Procedure, shortened: as §1

HOP-62 = conditions: Homo sapiens
Procedure, shortened: as §1

HCC-2998 = conditions: Homo sapiens; for inhibition at 10 µM: HCC-2998 (Colon cancer), read-out: GI%
Procedure, shortened: as §1

HT29 = conditions: Homo sapiens, HT-29; for inhibition at 10 µM: HT29 (Colon cancer), read-out: GI%
Procedure, shortened: as §1

SNB-75 = conditions: Homo sapiens; SNB-75 (CNS cancer), 10 µM; read-out: GI%
Procedure, shortened: as §1

NCI/ADR-RES = conditions: Homo sapiens; for inhibition at 10 µM: NCI/ADR-RES (Ovarian cancer), read-out: GI%
Procedure, shortened: as §1

A498 = conditions: Homo sapiens; for inhibition at 10 µM: A498 (Renal cancer), read-out: GI%
Procedure, shortened: as §1

MALME-3 M = conditions: Homo sapiens; for inhibition at 10 µM: MALME-3 M (Melanoma), read-out: GI%
Procedure, shortened: as §1

T-47D = conditions: Homo sapiens, T47D
Procedure, shortened: as §1

SNB-19 = conditions: Homo sapiens; for inhibition at 10 µM: SNB-19 (CNS cancer), read-out: GI%
Procedure, shortened: as §1

LOX IMVI = conditions: Homo sapiens; for inhibition at 10 µM: LOX IMVI (Melanoma), read-out: GI%
Procedure, shortened: as §1

NCI-H23 = conditions: Homo sapiens; for inhibition at 10 µM: NCI-H23 (Non-small cell lung cancer), read-out: GI%
Procedure, shortened: as §1

UACC-257 = conditions: Homo sapiens; for inhibition at 10 µM: UACC-257 (Melanoma), read-out: GI%
Procedure, shortened: as §1

OVCAR-5 = conditions: Homo sapiens; for inhibition at 10 µM: OVCAR-5 (Ovarian cancer), read-out: GI%
Procedure, shortened: as §1

SK-MEL-5 = conditions: Homo sapiens; for inhibition at 10 µM: SK-MEL-5 (Melanoma), read-out: GI%
Procedure, shortened: as §1

NCI-H322M = conditions: Homo sapiens; for inhibition at 10 µM: NCI-H322M (Non-small cell lung cancer), read-out: GI%
Procedure, shortened: as §1

ACHN = conditions: Homo sapiens; for inhibition at 10 µM: ACHN (Renal cancer), read-out: GI%
Procedure, shortened: as §1

MOLT-4 = conditions: Homo sapiens; for inhibition at 10 µM: MOLT-4 (Leukemia), read-out: GI%
Procedure, shortened: as §1

RPMI-8226 = conditions: Homo sapiens; for inhibition at 10 µM: RPMI-8226 (Leukemia), read-out: GI%
Procedure, shortened: as §1

OVCAR-4 = conditions: Homo sapiens; for inhibition at 10 µM: OVCAR-4 (Ovarian cancer), read-out: GI%
Procedure, shortened: as §1

HCT-15 = conditions: Homo sapiens; for inhibition at 10 µM: HCT-15 (Colon cancer), read-out: GI%
Procedure, shortened: as §1

HOP-92 = conditions: Homo sapiens; for inhibition at 10 µM: HOP-92 (Non-small cell lung cancer), read-out: GI%
Procedure, shortened: as §1

SK-MEL-2 = conditions: Homo sapiens; for inhibition at 10 µM: SK-MEL-2 (Melanoma), read-out: GI%
Procedure, shortened: as §1

OVCAR-3 = conditions: Homo sapiens; for inhibition at 10 µM: OVCAR-3 (Ovarian cancer), read-out: GI%
Procedure, shortened: as §1

IGROV1 = conditions: Homo sapiens, IGROV-1; for inhibition at 10 µM: IGROV1 (Ovarian cancer), read-out: GI%
Procedure, shortened: as §1

## COc1cccc(C=NNC(=O)c2ccc3[nH]c(-c4ccccc4)nc3c2)c1O [8d, N'-(2-hydroxy-3-methoxybenzylidene)-2-phenyl-1H-benzo[d]imidazole-5-carbohydrazide]
NCI-H226
  inhibition at 10 µM: > 100%
NCI-H226; NCI-H226, Non-small cell lung cancer, five-dose
  GI50: 530 nM
COLO 205; COLO 205, Colon cancer, five-dose
  GI50: 2340 nM
HOP-62; HOP-62, Non-small cell lung cancer, five-dose
  GI50: 1650 nM
HCC-2998
  inhibition at 10 µM: 98.5%
HCC-2998; HCC-2998, Colon cancer, five-dose
  GI50: 1790 nM
HT29
  inhibition at 10 µM: 84.5%
HT29; HT29, Colon cancer, five-dose
  GI50: 3410 nM
SNB-75
  inhibition at 10 µM: 99.2%
NCI/ADR-RES
  inhibition at 10 µM: 48%
NCI/ADR-RES; NCI/ADR-RES, Ovarian cancer, five-dose
  GI50: 4650 nM
A498
  inhibition at 10 µM: < 5%
A498; A498, Renal cancer, five-dose
  GI50: 36600 nM
MALME-3 M
  inhibition at 10 µM: > 100%
MALME-3 M; MALME-3 M, Melanoma, five-dose
  GI50: 1370 nM
T-47D; T-47D, Breast cancer, five-dose
  GI50: 1930 nM
SNB-19
  inhibition at 10 µM: 90.4%
SNB-19; SNB-19, CNS cancer, five-dose
  GI50: 2410 nM
LOX IMVI
  inhibition at 10 µM: 92.9%
LOX IMVI; LOX IMVI, Melanoma, five-dose
  GI50: 1340 nM
NCI-H23
  inhibition at 10 µM: > 100%
NCI-H23; NCI-H23, Non-small cell lung cancer, five-dose
  GI50: 1870 nM
UACC-257
  inhibition at 10 µM: > 100%
UACC-257; UACC-257, Melanoma, five-dose
  GI50: 2340 nM
OVCAR-5
  inhibition at 10 µM: 63.2%
OVCAR-5; OVCAR-5, Ovarian cancer, five-dose
  GI50: 2770 nM
SK-MEL-5
  inhibition at 10 µM: > 100%
SK-MEL-5; SK-MEL-5, Melanoma, five-dose
  GI50: 1400 nM
NCI-H322M
  inhibition at 10 µM: 88%
NCI-H322M; NCI-H322M, Non-small cell lung cancer, five-dose
  GI50: 1410 nM
ACHN
  inhibition at 10 µM: 83.3%
ACHN; ACHN, Renal cancer, five-dose
  GI50: 2280 nM
MOLT-4
  inhibition at 10 µM: 65.8%
MOLT-4; MOLT-4, Leukemia, five-dose
  GI50: 2060 nM
RPMI-8226
  inhibition at 10 µM: 98.5%
RPMI-8226; RPMI-8226, Leukemia, five-dose
  GI50: 1860 nM
OVCAR-4
  inhibition at 10 µM: > 100%
OVCAR-4; OVCAR-4, Ovarian cancer, five-dose
  GI50: 1850 nM
HCT-15
  inhibition at 10 µM: 71.6%
HCT-15; HCT-15, Colon cancer, five-dose
  GI50: 2070 nM
HOP-92
  inhibition at 10 µM: 68.4%
HOP-92; HOP-92, Non-small cell lung cancer, five-dose
  GI50: 1580 nM
SK-MEL-2
  inhibition at 10 µM: 34.3%
SK-MEL-2; SK-MEL-2, Melanoma, five-dose
  GI50: 1640 nM
OVCAR-3
  inhibition at 10 µM: > 100%
OVCAR-3; OVCAR-3, Ovarian cancer, five-dose
  GI50: 420 nM
IGROV1
  inhibition at 10 µM: 79.9%
IGROV1; IGROV1, Ovarian cancer, five-dose
  GI50: 2340 nM

## COc1ccc(C=NNC(=O)c2ccc3[nH]c(-c4ccccc4)nc3c2)cc1O [8e, N'-(3-Hydroxy-4-methoxybenzylidene)-2-phenyl-1H-benzo[d]imidazole-5-carbohydrazide]
NCI-H226
  inhibition at 10 µM: 11.4%
COLO 205; COLO 205 (Colon cancer), 10 µM, read-out: GI%
  inhibition at 10 µM: 35.4%
HOP-62; HOP-62 (Non-small cell lung cancer), 10 µM, read-out: GI%
  inhibition at 10 µM: 21.4%
HCC-2998
  inhibition at 10 µM: < 5%
HT29
  inhibition at 10 µM: 95.8%
SNB-75
  inhibition at 10 µM: < 5%
NCI/ADR-RES
  inhibition at 10 µM: < 5%
A498
  inhibition at 10 µM: < 5%
MALME-3 M
  inhibition at 10 µM: 78.4%
T-47D; T-47D (Breast cancer), 10 µM, read-out: GI%
  inhibition at 10 µM: 39.3%
SNB-19
  inhibition at 10 µM: < 5%
LOX IMVI
  inhibition at 10 µM: < 5%
NCI-H23
  inhibition at 10 µM: < 5%
UACC-257
  inhibition at 10 µM: 13.8%
OVCAR-5
  inhibition at 10 µM: < 5%
SK-MEL-5
  inhibition at 10 µM: 39.5%
NCI-H322M
  inhibition at 10 µM: < 5%
ACHN
  inhibition at 10 µM: < 5%
MOLT-4
  inhibition at 10 µM: 36.1%
RPMI-8226
  inhibition at 10 µM: 23.4%
OVCAR-4
  inhibition at 10 µM: < 5%
HCT-15
  inhibition at 10 µM: < 5%
HOP-92
  inhibition at 10 µM: 6.3%
SK-MEL-2
  inhibition at 10 µM: 8.51%
OVCAR-3
  inhibition at 10 µM: 7.25%
IGROV1
  inhibition at 10 µM: 22%

— PMC10893631, “Receptor-based pharmacophore modeling, molecular docking, synthesis and biological evaluation of novel VEGFR-2, FGFR-1, and BRAF multi-kinase inhibitors” (BMC Chemistry, 2024)
